Patent publication US20020137929A1, “1 - (3-heterocyclylphenyl) isothiourea, -isourea, -guanidine and -amidine herbicidal agents” (Intellectual Property Department, BASF Aktiengesellschaft, priority 1998, published 2002)

Key:
AMBEL (Ragweed, Common) = experiment: Preemergence herbicidal evaluation; type: in vivo, Ambrosia artemisifolia; details: rated 4-5 weeks after treatment; for AMBEL rating: preemergence, 0-9 scale
Method in brief: (§1)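 Sown cups got a single aqueous acetone spray of test compound (roughly 0.0156–0.500 kg/ha) before seedlings emerged. Evaluation, 4–5 weeks on, used a 0–9 visual scale covering plant stand, vigor, size, malformation, chlorosis and general appearance compared with controls.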

ABUTH (Velvetleaf) = experiment: Preemergence herbicidal evaluation; type: in vivo, Abutilon theophrasti; details: rated 4-5 weeks after treatment; for ABUTH rating: preemergence, 0-9 scale
Method in brief: as §1

[1] = system: SAGPY (Arrowhead (Pygmaea)); experiment: Postemergence weed control under flooded paddy conditions; type: in vivo, Sagittaria pygmaea; details: postemergence weeds
Method in brief: (§2)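 Flood-water application, about 0.0313–0.500 kg/ha a.i. in aqueous/acetone 50/50 v/v; water depth 1.5–3 cm throughout. Weeds 3–5 cm, rice 1.5–2.5 leaf. Greenhouse; 0–9 visual rating vs control at 3–4 wk.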

MOOVA (Monochoria) = experiment: as above; type: in vivo, Monochoria vaginalis; details: postemergence weeds
Method in brief: as §2

[2] = system: GLXMAW (Soybean, Williams); experiment: Preemergence herbicidal evaluation; type: in vivo, Glycine max, (L.) Merr. cv Williams; details: rated 4-5 weeks after treatment; for GLXMAW rating: preemergence, 0-9 scale
Method in brief: as §1

ZEAMX (Corn, Field) = experiment: Postemergence herbicidal evaluation; type: in vivo, Zea mays; details: for herbicidal rating ZEAMX: postemergence
Method in brief: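 Young plants, roughly two weeks from seeding, receive the active ingredient as a sprayed dispersion (acetone/water 50/50, 0.5% TWEEN 20) at 40 psi. Doses span about 0.0156 to 0.500 kg/ha. A visual score from 0 to 9 compares treated with control plants four to five weeks on.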

[3] = Rate 0.0313 kg/ha, rated 3 to 4 weeks after treatment
[4] = Rate 0.0625 kg/ha, rated 3 to 4 weeks after treatment
[5] = Rate 0.1250 kg/ha, rated 3 to 4 weeks after treatment
[6] = Rate 0.2500 kg/ha, rated 3 to 4 weeks after treatment
[7] = rate 0.0313 kg/ha, 3-4 weeks after treatment
[8] = rate 0.0625 kg/ha, 3-4 weeks after treatment
[9] = rate 0.1250 kg/ha, 3-4 weeks after treatment
[10] = rate 0.2500 kg/ha, 3-4 weeks after treatment

Row | SMILES | Herbicidal rating SAGPY [1, 3] | Herbicidal rating SAGPY [1, 4] | Herbicidal rating SAGPY [1, 5] | Herbicidal rating SAGPY [1, 6] | Herbicidal rating MOOVA (MOOVA (Monochoria); [3]) | Herbicidal rating MOOVA (MOOVA (Monochoria); [4]) | Herbicidal rating MOOVA (MOOVA (Monochoria); [5]) | Herbicidal rating MOOVA (MOOVA (Monochoria); [6]) | Preemergence herbicidal rating AMBEL (AMBEL (Ragweed, Common); rate 0.0156 kg/ha) | Preemergence herbicidal rating AMBEL (AMBEL (Ragweed, Common); rate 0.0313 kg/ha) | Preemergence herbicidal rating AMBEL (AMBEL (Ragweed, Common); rate 0.0625 kg/ha) | Preemergence herbicidal rating AMBEL (AMBEL (Ragweed, Common); rate 0.1250 kg/ha) | Preemergence herbicidal rating AMBEL (AMBEL (Ragweed, Common); rate 0.2500 kg/ha) | Preemergence herbicidal rating ABUTH (ABUTH (Velvetleaf); rate 0.0156 kg/ha) | Preemergence herbicidal rating ABUTH (ABUTH (Velvetleaf); rate 0.0313 kg/ha) | Preemergence herbicidal rating ABUTH (ABUTH (Velvetleaf); rate 0.0625 kg/ha) | Preemergence herbicidal rating ABUTH (ABUTH (Velvetleaf); rate 0.1250 kg/ha) | Preemergence herbicidal rating ABUTH (ABUTH (Velvetleaf); rate 0.2500 kg/ha) | Preemergence herbicidal rating GLXMAW ([2]; rate 0.0156 kg/ha) | Preemergence herbicidal rating GLXMAW ([2]; rate 0.0313 kg/ha) | further results
1 | CCS(=O)(=O)NC(=O)CC1SC(=Nc2cc(-n3c(=O)cc(C(F)(F)F)n(C)c3=O)c(F)cc2Cl)N(C)C1=O (stereo not shown) [Compound 105, 2-{{2-Chloro-5-[3,6-dihydro-3-methyl-2,6-dioxo-4-(trifluoromethyl)-1(2H)-pyrimidinyl]-4-fluorophenyl}imino}-N-(ethylsulfonyl)-3-methyl-4-oxo-5-thiazolidineacetamide] | 3.0 | 5.0 | 5.0 | 7.0 | 6.0 | 7.0 | 7.0 | 9.0 | – | – | – | – | – | – | – | – | – | – | – | – | AMBEL rating (AMBEL (Ragweed, Common); 0.1250 kg/ha): 1.0; AMBEL rating (AMBEL (Ragweed, Common); 0.2500 kg/ha): 3.0; AMBEL rating (AMBEL (Ragweed, Common); 0.5000 kg/ha): 4.0; ABUTH rating (ABUTH (Velvetleaf); 0.1250 kg/ha): 7.0; ABUTH rating (ABUTH (Velvetleaf); 0.2500 kg/ha): 9.0; ABUTH rating (ABUTH (Velvetleaf); 0.5000 kg/ha): 9.0; GLXMAW rating ([2]; 0.1250 kg/ha): 0.0; GLXMAW rating ([2]; 0.2500 kg/ha): 0.0; GLXMAW rating ([2]; 0.5000 kg/ha): 0.0; herbicidal rating ZEAMX (ZEAMX (Corn, Field); rate 0.0156 kg/ha): 3.5; herbicidal rating ZEAMX (ZEAMX (Corn, Field); rate 0.0313 kg/ha): 5.0; herbicidal rating ZEAMX (ZEAMX (Corn, Field); rate 0.0625 kg/ha): 6.0; herbicidal rating ZEAMX (ZEAMX (Corn, Field); rate 0.1250 kg/ha): 7.0
2 | CCOC(=O)CN1C(=O)CSC1=Nc1cc(N2C(=O)C3=C(CCCC3)C2=O)c(F)cc1Cl [Compound 47, Ethyl 2-{[2-chloro-5-(1-cyclohexene-1,2-dicarboximido)-4-fluorophenyl]imino}-4-oxo-3-thiazolidineacetate] | – | – | – | – | – | – | – | – | 0.0 | 0.0 | 0.0 | 0.0 | 0.0 | 4.0 | 4.0 | 9.0 | 9.0 | 9.0 | 0.0 | 0.0 | Herbicidal rating SAGPY [1, 7]: 0.0; Herbicidal rating SAGPY [1, 8]: 0.0; Herbicidal rating SAGPY [1, 9]: 4.0; Herbicidal rating SAGPY [1, 10]: 7.0; Herbicidal rating MOOVA (MOOVA (Monochoria); [7]): 5.0; Herbicidal rating MOOVA (MOOVA (Monochoria); [8]): 6.0; Herbicidal rating MOOVA (MOOVA (Monochoria); [9]): 9.0; Herbicidal rating MOOVA (MOOVA (Monochoria); [10]): 9.0; Preemergence herbicidal rating GLXMAW ([2]; rate 0.0625 kg/ha): 0.0; Preemergence herbicidal rating GLXMAW ([2]; rate 0.1250 kg/ha): 0.0; Preemergence herbicidal rating GLXMAW ([2]; rate 0.2500 kg/ha): 0.0; Postemergence herbicidal rating ZEAMX (ZEAMX (Corn, Field); Rate 0.0156 kg/ha): 5.0; Postemergence herbicidal rating ZEAMX (ZEAMX (Corn, Field); Rate 0.0313 kg/ha): 7.0; Postemergence herbicidal rating ZEAMX (ZEAMX (Corn, Field); Rate 0.0625 kg/ha): 7.5
3 | CCOC(=O)CN1C(=O)C(CC(=O)OC(C)C)SC1=Nc1cc(-n2c(=O)cc(C(F)(F)F)n(C)c2=O)c(F)cc1Cl (stereo not shown) [Compound 60, 2-{{2-Chloro-5-[3,6-dihydro-3-methyl-2,6-dioxo-4-(trifluoromethyl)-1(2H)-pyrimidinyl]-4-fluoro-phenyl}imino}-4-oxo-3,5-thiazolidinediacetic acid, 3-ethyl isopropyl ester] | 3.0 | 4.0 | 9.0 | 9.0 | 9.0 | 9.0 | 9.0 | 9.0 | 0.0 | 0.0 | 2.0 | 7.0 | 7.0 | 2.0 | 9.0 | 7.0 | 9.0 | 9.0 | 1.0 | 0.5 | Preemergence herbicidal rating AMBEL (AMBEL (Ragweed, Common); rate 0.5000 kg/ha): 9.0; Preemergence herbicidal rating ABUTH (ABUTH (Velvetleaf); rate 0.5000 kg/ha): 9.0; Preemergence herbicidal rating GLXMAW ([2]; rate 0.0625 kg/ha): 1.5; Preemergence herbicidal rating GLXMAW ([2]; rate 0.1250 kg/ha): 3.0; Preemergence herbicidal rating GLXMAW ([2]; rate 0.2500 kg/ha): 3.5; Preemergence herbicidal rating GLXMAW ([2]; rate 0.5000 kg/ha): 6.0; Postemergence herbicidal rating ZEAMX (ZEAMX (Corn, Field); Rate 0.0158 kg/ha): 5.0; Postemergence herbicidal rating ZEAMX (ZEAMX (Corn, Field); Rate 0.0315 kg/ha): 5.0; Postemergence herbicidal rating ZEAMX (ZEAMX (Corn, Field); Rate 0.0630 kg/ha): 5.5
